Laboratory results published in patent US20120225862A1, “HETEROARYL BENZAMIDES, COMPOSITIONS AND METHODS OF USE” (AUCKLAND UNIVSERVICES LIMITED, priority 2009, published 2012).

Columns and labels:
[1] = system: RCC4; experiment: XTT IC50 / viability assay, RCC4 cells; assay type: cell-based, human; conditions: Homo sapiens, RCC4, 96 h; XTT assay, four days
Procedure, shortened: (§1)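 RCC4 parental and VHL-reintroduced RCC4/VHL cells (DMEM, 10% FCS) treated with serially diluted drug for four days. Viability by XTT (0.3 mg/mL) with N-methyl dibenzopyrazine methyl sulfate, 1–2 h at 37 °C, absorbance 450 nm; IC50 by linear interpolation.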

[2] = system: RCC4/VHL; experiment: XTT IC50 assay, selectivity RCC4 versus RCC4 with VHL-reintroduced; assay type: cell-based, human; conditions: selectivity ratio of XTT IC50 values, RCC4 vs RCC4/VHL
Procedure, shortened: as §1

Row | melting point | Structure (SMILES) | IC50 [1] | Ratio (RCC4:RCC/VHL) [2]
1 | 251 to 253 °C | CC(C)(C)c1ccc(S(=O)(=O)NCc2ccc(C(=O)Nc3ccc(Cl)nc3)cc2)cc1 [Example 111, 4-({[(4-tert-Butylphenyl)sulfonyl]amino}methyl)-N-(6-chloro-3-pyridinyl)benzamide] | > 20000 nM | 
2 | 185 to 187 °C | CC(C)(C)c1ccc(S(=O)(=O)NCc2ccc(C(=O)Nc3cccnc3)c(F)c2)cc1 [Example 146, 4-({[(4-tert-Butylphenyl)sulfonyl]amino}methyl)-2-fluoro-N-(3-pyridinyl)benzamide] |  | 
3 | 241 to 243 °C | Cc1cc(C)cc(C(=O)NCc2ccc(C(=O)Nc3cccnc3)cc2)c1 [Example 87, 3,5-Dimethyl-N-(4-(pyridin-3-ylcarbamoyl)benzyl)benzamide] | > 20000 nM | 
4 | 198 to 201 °C | O=C(Nc1cccc2ncccc12)c1ccc(CNS(=O)(=O)c2ccccc2)cc1 [Example 7, 4-(Phenylsulfonamidomethyl)-N-(quinolin-5-yl)benzamide] | > 20000 nM | 
5 | 231 to 233 °C | COc1ccncc1NC(=O)c1ccc(CNS(=O)(=O)c2ccc(C(C)(C)C)cc2)cc1 [Example 124, 4-({[(4-tert-Butylphenyl)sulfonyl]amino}methyl)-N-(4-methoxy-3-pyridinyl)benzamide] | > 20000 nM | 
6 | 162 to 163 °C | Cc1cc(CNS(=O)(=O)c2ccc(C(C)(C)C)cc2)ccc1C(=O)Nc1cccnc1 [Example 145, 4-({[(4-tert-Butylphenyl)sulfonyl]amino}methyl)-2-methyl-N-(3-pyridinyl)benzamide] |  | 
7 | 215 to 218 °C | CCC(=O)Nc1cccc(S(=O)(=O)NCc2ccc(C(=O)Nc3cccnc3)cc2)c1 [Example 143, 4-[({[3-(Propionylamino)phenyl]sulfonyl}amino)methyl]-N-(3-pyridinyl)benzamide] |  | 
8 | 203 to 205 °C | Cc1cc(C(=O)Nc2cccnc2)ccc1CNS(=O)(=O)c1ccc(C(C)(C)C)cc1 [Example 147, 4-({[(4-tert-Butylphenyl)sulfonyl]amino}methyl)-3-methyl-N-(3-pyridinyl)benzamide] |  | 
9 | 220 to 222 °C | O=C(Nc1cccnc1)c1ccc(CNS(=O)(=O)c2ccc(C34CC5CC(CC(C5)C3)C4)cc2)cc1 (hydrate or solvate) [Example 39, 4-[({[4-(1-Adamantyl)phenyl]sulfonyl}amino)methyl]-N-(3-pyridinyl)benzamide] |  | 
10 | 198 to 200 °C | CC(C)(C)c1ccc(S(=O)(=O)NCc2ccc(C(=O)Nc3cccnc3)cc2F)cc1 [Example 148, 4-({[(4-tert-Butylphenyl)sulfonyl]amino}methyl)-3-fluoro-N-(3-pyridinyl)benzamide] |  | 
11 | 178 to 180 °C | C=CC(=O)Nc1cccc(S(=O)(=O)NCc2ccc(C(=O)Nc3cccnc3)cc2)c1 [Example 144, 4-[({[3-(Acryloylamino)phenyl]sulfonyl}amino)methyl]-N-(3-pyridinyl)benzamide] |  | 
12 | 229 to 232 °C | O=C(Nc1cccnc1)c1ccc(CNS(=O)(=O)c2ccc(C34CC5CC(CC(Cl)(C5)C3)C4)cc2)cc1 (hydrate or solvate) [Example 40, 4-[({[4-(3-chloro-1-adamantyl)phenyl]sulfonyl}amino)methyl]-N-(3-pyridinyl)benzamide] |  | 
13 | 261 to 263 °C | CC(C)(C)c1ccc(S(=O)(=O)NCc2ccc(C(=O)Nc3ccncc3)cc2)cc1 [Example 106, 4-((4-tert-Butylphenylsulfonamido)methyl)-N-(pyridin-4-yl)benzamide] |  | 
14 |  | O=C(Nc1cccnc1)c1ccc(CNS(=O)(=O)c2ccc3c(c2)CCC3)cc1 [Example 74, 4-((2,3-Dihydro-1H-indene-5-sulfonamido)methyl)-N-(pyridin-3-yl)benzamide] | < 1000 nM | c (“c” reflects a ratio of >100)
15 |  | O=C(Nc1cccnc1)c1ccc(CNS(=O)(=O)c2cccc(N3CCOCC3)c2)cc1 [Example 126, 4-[({[3-(4-Morpholinyl)phenyl]sulfonyl}amino)methyl]-N-(3-pyridinyl)benzamide] | 1000 to 20000 nM | b (“b” reflects from 10 to 100)
16 |  | O=C(Nc1cccnc1)c1ccc(CNS(=O)(=O)c2ccc(-c3cnco3)cc2)cc1 [Example 60, 4-[({[4-(1,3-Oxazol-5-yl)phenyl]sulfonyl}amino)methyl]-N-(3-pyridinyl)benzamide] | < 1000 nM | b (“b” reflects from 10 to 100)
17 |  | C#Cc1ccc(S(=O)(=O)NCc2ccc(C(=O)Nc3cccnc3)cc2)cc1 [Example 95, 4-((4-Ethynylphenylsulfonamido)methyl)-N-(pyridin-3-yl)benzamide] | 1000 to 20000 nM | b (“b” reflects from 10 to 100)

Row | melting point | Structure (SMILES) | IC50 [1] | Ratio (RCC4:RCC/VHL) [2]
18 |  | COc1ccc(S(=O)(=O)NCc2ccc(C(=O)Nc3cccnc3)cc2)cc1C(C)(C)C [Example 62, 4-((3-tert-Butyl-4-methoxyphenylsulfonamido)methyl)-N-(pyridin-3-yl)benzamide] | < 1000 nM | c (“c” reflects a ratio of >100)
19 |  | N#Cc1ccc(S(=O)(=O)NCc2ccc(C(=O)Nc3cccnc3)cc2)cc1 [Example 50, 4-((4-Cyanophenylsulfonamido)methyl)-N-(pyridin-3-yl)benzamide] | 1000 to 20000 nM | a (“a” reflects a ratio of RCC4/RCC-VHL+ ranging from 1 to 10)
20 |  | Cc1ccc(S(=O)(=O)NCc2ccc(C(=O)Nc3cccnc3)cc2)cc1C [Example 65, 4-((3,4-Dimethylphenylsulfonamido)methyl)-N-(pyridin-3-yl)benzamide] | < 1000 nM | c (“c” reflects a ratio of >100)
21 |  | O=C(Nc1cccnc1)c1ccc(CNS(=O)(=O)c2cccc(C(F)(F)F)c2)cc1 [Example 23, N-(Pyridin-3-yl)-4-((3-(trifluoromethyl)phenylsulfonamido)methyl)benzamide] | < 1000 nM | b (“b” reflects from 10 to 100)
22 |  | CN(Cc1ccc(C(=O)Nc2cccnc2)cc1)S(=O)(=O)c1ccc(C(C)(C)C)cc1 [Example 138, 4-{[[(4-tert-Butylphenyl)sulfonyl](methyl)amino]methyl}-N-(3-pyridinyl)benzamide] | 1000 to 20000 nM | a (“a” reflects a ratio of RCC4/RCC-VHL+ ranging from 1 to 10)
23 | 211 to 213 °C | N#Cc1cc(S(=O)(=O)NCc2ccc(C(=O)Nc3cccnc3)cc2)ccc1F [Example 71, 4-((3-Cyano-4-fluorophenylsulfonamido)methyl)-N-(pyridin-3-yl)benzamide] |  | 
24 |  | O=C(Nc1cccnc1)c1ccc(CNS(=O)(=O)c2ccc(-c3ccccc3)cc2)cc1 [Example 54, 4-((Biphenyl-4-ylsulfonamido)methyl)-N-(pyridin-3-yl)benzamide] | 1000 to 20000 nM | b (“b” reflects from 10 to 100)
25 |  | O=C(Nc1cccnc1)c1ccc(CNS(=O)(=O)c2ccc(C(F)(F)F)cc2)cc1 [Example 49, N-(Pyridin-3-yl)-4-((4-(trifluoromethyl)phenylsulfonamido)methyl)benzamide] | 1000 to 20000 nM | a (“a” reflects a ratio of RCC4/RCC-VHL+ ranging from 1 to 10)
26 |  | CC(=O)c1ccc(S(=O)(=O)NCc2ccc(C(=O)Nc3cccnc3)cc2)cc1 [Example 48, 4-((4-Acetylphenylsulfonamido)methyl)-N-(pyridin-3-yl)benzamide] | < 1000 nM | b (“b” reflects from 10 to 100)
27 |  | O=C(Nc1cccnc1)c1ccc(CNS(=O)(=O)c2ccc(CCCO)cc2)cc1 [Example 104, 4-[({[4-(3-Hydroxypropyl)phenyl]sulfonyl}amino)methyl]-N-(3-pyridinyl)benzamide] | < 1000 nM | c (“c” reflects a ratio of >100)
28 |  | O=C(Nc1cccnc1)c1ccc(CNS(=O)(=O)c2ccc(I)cc2)cc1 [Example 94, 4-((4-Iodophenylsulfonamido)methyl)-N-(pyridin-3-yl)benzamide] | 1000 to 20000 nM | a (“a” reflects a ratio of RCC4/RCC-VHL+ ranging from 1 to 10)
29 |  | CN1CCN(Cc2ccc(S(=O)(=O)NCc3ccc(C(=O)Nc4cccnc4)cc3)cc2)CC1 [Example 85, 4-{[({4-[(4-Methyl-1-piperazinyl)methyl]phenyl}sulfonyl)amino]methyl}-N-(3-pyridinyl)benzamide] | < 1000 nM | c (“c” reflects a ratio of >100)
30 |  | Nc1cccc(S(=O)(=O)NCc2ccc(C(=O)Nc3cccnc3)cc2)c1 [Example 17, 4-((3-Aminophenylsulfonamido)methyl)-N-(pyridin-3-yl)benzamide] | 1000 to 20000 nM | b (“b” reflects from 10 to 100)
31 |  | CC(C)(C)c1ccc(S(=O)(=O)NCc2ccc(C(=O)Nc3cccnc3F)cc2)cc1 [Example 123, 4-({[(4-tert-Butylphenyl)sulfonyl]amino}methyl)-N-(2-fluoro-3-pyridinyl)benzamide] | 1000 to 20000 nM | a (“a” reflects a ratio of RCC4/RCC-VHL+ ranging from 1 to 10)
32 |  | CC(C)(C)c1ccc(S(=O)(=O)NCc2ccc(C(=O)Nc3ccc(N4CCOCC4)nc3)cc2)cc1 [Example 117, 4-({[(4-tert-Butylphenyl)sulfonyl]amino}methyl)-N-[6-(4-morpholinyl)-3-pyridinyl]benzamide] | > 20000 nM | a (“a” reflects a ratio of RCC4/RCC-VHL+ ranging from 1 to 10)
33 |  | O=C(Nc1cccnc1)c1ccc(CNS(=O)(=O)c2ccccc2Br)cc1 [Example 13, 4-((2-Bromophenylsulfonamido)methyl)-N-(pyridin-3-yl)benzamide] | 1000 to 20000 nM | a (“a” reflects a ratio of RCC4/RCC-VHL+ ranging from 1 to 10)
34 |  | O=C(Nc1cccnc1)c1ccc(CNS(=O)(=O)c2cccc(-c3ccccc3)c2)cc1 [Example 26, 4-{[([1,1′-Biphenyl]-3-ylsulfonyl)amino]methyl}-N-(3-pyridinyl)benzamide] | 1000 to 20000 nM | b (“b” reflects from 10 to 100)
